According to the supplement of paper PMC11061612:

Key:
[1] = system: NCI-H720 (Other Solid Carcinomas); assay: combination Emax (second highest fraction inhibited in the dose matrix, 72 h); higher = more inhibition; extreme values may be limits of the assay
Summary of the method: (§1)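 After 24 hours at 37°C and 5% CO2 in 1536-well plates, cells in DMEM/F12 or RPMI plus 10% FBS received two-drug dose matrices for 72 hours. Viability came from CellTiter-Glo 2.0 luminescence and was scaled as inhibition, anchored at 0 by vehicle wells and at 1 by blank wells. Combination Emax is taken as the second-highest inhibition in the matrix, and Bliss excess as the observed combination effect less EA + EB − EA·EB, with EA and EB the single-agent effects.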

[2] = system: SNU-449 (Hepatocellular Carcinoma); assay: Bliss excess, mean over the matrix (fraction); higher = more synergy
Summary of the method: as §1

BE2-M17 (Neuroblastoma) = assay: as above
Summary of the method: as §1

[3] = system: WSU-NHL (B-Cell Non-Hodgkin's Lymphoma); assay: as above
Summary of the method: as §1

A673 (Ewing's Sarcoma) = assay: as above
Summary of the method: as §1

[4] = system: HeLa (Cervical Carcinoma); assay: as above
Summary of the method: as §1

KS-1 (Glioblastoma) = assay: as above
Summary of the method: as §1

[5] = system: NCI-H1568 (Lung Adenocarcinoma); assay: as above
Summary of the method: as §1

[6] = system: NUGC-4 (Gastric Carcinoma); assay: as above
Summary of the method: as §1

[7] = system: NCI-H720 (Other Solid Carcinomas); assay: as above
Summary of the method: as §1

GAMG (Glioblastoma) = assay: as above
Summary of the method: as §1

[8] = system: MHH-CALL-2 (B-Lymphoblastic Leukemia); assay: as above
Summary of the method: as §1
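For Bliss excess, mean over the matrix in this document: after 72 h of two-drug dosing.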

Structure (SMILES) | combination Emax [1] | Bliss excess [2] | Bliss excess (BE2-M17 (Neuroblastoma)) | Bliss excess [3] | Bliss excess (A673 (Ewing's Sarcoma)) | Bliss excess [4] | Bliss excess (KS-1 (Glioblastoma)) | Bliss excess [5] | Bliss excess [6] | Bliss excess [7] | Bliss excess (GAMG (Glioblastoma)) | Bliss excess [8]
CN(C)CCCOc1ccc(-c2ccc3ncc4c(c3c2)n(C2CCOCC2)c(=O)n4C)cn1 [AZD0156] + C=CCn1c(=O)c2cnc(Nc3ccc(N4CCN(C)CC4)cc3)nc2n1-c1cccc(C(C)(C)O)n1 [AZD1775] (first compound max 1 µM, partner max 1 µM) | 0.722 | -0.0635 | -0.0429 | -0.002 | 0.0342 | -0.0364 | -0.0268 | -0.0493 | -0.055 | 0.0013 | -0.0429 | 
CN(C)CCCOc1ccc(-c2ccc3ncc4c(c3c2)n(C2CCOCC2)c(=O)n4C)cn1 [AZD0156] + CCN(CCO)CCCOc1ccc2c(Nc3cc(CC(=O)Nc4cccc(F)c4)[nH]n3)ncnc2c1 [AZD2811] (first compound max 1 µM, 7x7, partner max 1 µM) | 0.742 | -0.0656 | 0.0535 | -0.005 | 0.0262 | -0.0136 | 0.0228 | -0.0376 | -0.0387 | 0.0368 | -0.0244 | 
CN(C)CCCOc1ccc(-c2ccc3ncc4c(c3c2)n(C2CCOCC2)c(=O)n4C)cn1 [AZD0156] + C[C@@H]1COCCN1C2=NC(=NC(=C2)C3(CC3)[S@](=N)(=O)C)C4=C5C=CNC5=NC=C4 [AZD6738] (first compound max 1 µM, 7x7, partner max 10 µM) | 0.716 | -0.0662 | 0.0914 | -0.0252 | 0.0153 | -0.0217 | -0.0267 | -0.0424 | 0.0101 | -0.0059 | -0.0485 | 
C=CCn1c(=O)c2cnc(Nc3ccc(N4CCN(C)CC4)cc3)nc2n1-c1cccc(C(C)(C)O)n1 [AZD1775] + C[C@@H]1COCCN1C2=NC(=NC(=C2)C3(CC3)[S@](=N)(=O)C)C4=C5C=CNC5=NC=C4 [AZD6738] (first compound max 1 µM, partner max 10 µM) | 0.838 | -0.0061 | 0.103 | 0.0013 | 0.0115 | 0.0883 | -0.0042 | -0.0346 | -0.0701 | 0.0344 | -0.0218 | 
C=CCn1c(=O)c2cnc(Nc3ccc(N4CCN(C)CC4)cc3)nc2n1-c1cccc(C(C)(C)O)n1 [AZD1775] + O=C(c1cc(Cc2n[nH]c(=O)c3ccccc23)ccc1F)N1CCN(C(=O)C2CC2)CC1 [Olaparib] (first compound max 1 µM, partner max 10 µM) | 0.671 | -0.0418 | -0.0486 | -0.025 | 0.0042 | 0.0346 | -0.0097 | -0.0745 | -0.0481 | -0.035 | 0.0147 | 
CCN(CCO)CCCOc1ccc2c(Nc3cc(CC(=O)Nc4cccc(F)c4)[nH]n3)ncnc2c1 [AZD2811] + C=CCn1c(=O)c2cnc(Nc3ccc(N4CCN(C)CC4)cc3)nc2n1-c1cccc(C(C)(C)O)n1 [AZD1775] (first compound max 1 µM, partner max 1 µM) | 0.679 | -0.0028 | 0.0436 | -0.0761 | -0.0838 | 0.0278 | 0.0223 | -0.0301 | -0.0708 | 0.0326 | 0.0224 | 
CCN(CCO)CCCOc1ccc2c(Nc3cc(CC(=O)Nc4cccc(F)c4)[nH]n3)ncnc2c1 [AZD2811] + C[C@@H]1COCCN1C2=NC(=NC(=C2)C3(CC3)[S@](=N)(=O)C)C4=C5C=CNC5=NC=C4 [AZD6738] (first compound max 1 µM, 7x7, partner max 10 µM) | 0.8 | -0.0536 | 0.0002 | -0.0665 | -0.0587 | -0.0743 | -0.0711 | -0.0514 | -0.0565 | 0.0033 | -0.0399 | 
CCN(CCO)CCCOc1ccc2c(Nc3cc(CC(=O)Nc4cccc(F)c4)[nH]n3)ncnc2c1 [AZD2811] + O=C(c1cc(Cc2n[nH]c(=O)c3ccccc23)ccc1F)N1CCN(C(=O)C2CC2)CC1 [Olaparib] (first compound max 1 µM, 7x7, partner max 10 µM) | 0.561 | -0.0368 | 0.0317 | -0.0841 | -0.0906 | -0.0154 | 0.0053 | -0.0472 | 0 | -0.0312 | -0.0041 | 
C[C@@H]1COCCN1c1cc(C2([S@](C)(=N)=O)CC2)nc(-c2ccnc3[nH]ccc23)n1 [AZD6738] + O=C(c1cc(Cc2n[nH]c(=O)c3ccccc23)ccc1F)N1CCN(C(=O)C2CC2)CC1 [Olaparib] (first compound max 10 µM, 7x7, partner max 10 µM) | 0.687 | 0.0007 | -0.0176 | -0.0379 | 0.0381 | 0.0497 | 0 | -0.0358 | -0.0163 | -0.0398 | -0.0461 | 
COc1cccc2c1C(=O)c1c(O)c3c(c(O)c1C2=O)C[C@@](O)(C(=O)CO)C[C@@H]3O[C@H]1C[C@H](N)[C@H](O)[C@H](C)O1 [Doxorubicin] + Cc1cc2ncnn2cc1Nc1ncc2c(n1)n(C1CCOCC1)c(=O)n2C [AZD7648] (first compound max 1 µM, 7x7, partner max 10 µM) | 0.478 | -0.0358 | 0.0514 | 0.0404 | 0.0816 | 0.0511 | 0.0176 | -0.0357 | 0.0402 | 0.0281 | 0.0479 | 
COc1cccc(OCCCN)c1-c1cc(Nc2cnc(C#N)cn2)n[nH]1 [Prexasertib] + C=CCn1c(=O)c2cnc(Nc3ccc(N4CCN(C)CC4)cc3)nc2n1-c1cccc(C(C)(C)O)n1 [AZD1775] (first compound max 1 µM, partner max 1 µM) | 0.692 | -0.0048 | 0.098 | 0.0303 | 0.0752 | 0.0651 | -0.0244 | 0.0284 | 0.0569 | 0.107 | 0.0606 | 
COc1cccc(OCCCN)c1-c1cc(Nc2cnc(C#N)cn2)n[nH]1 [Prexasertib] + CN(C)CCCOc1ccc(-c2ccc3ncc4c(c3c2)n(C2CCOCC2)c(=O)n4C)cn1 [AZD0156] (first compound max 1 µM, 7x7, partner max 1 µM) | 0.562 | -0.0227 | -0.0185 | -0.0066 | 0.0133 | 0.0079 | -0.0131 | -0.032 | 0.0697 | 0.0149 | -0.0261 | 
CCc1c2c(nc3ccc(O)cc13)-c1cc3c(c(=O)n1C2)COC(=O)[C@]3(O)CC [SN-38] + O=C(c1cc(Cc2n[nH]c(=O)c3ccccc23)ccc1F)N1CCN(C(=O)C2CC2)CC1 [Olaparib] (first compound max 0.3 µM, 7x7, partner max 10 µM) | 0.333 | -0.0319 | 0.0082 | 0.044 | 0.0875 | 0.0232 | 0.0068 |  |  | -0.0027 | 0.109 | 
CC1(C)CCC(CN2CCN(c3ccc(C(=O)NS(=O)(=O)c4ccc(NCC5CCOCC5)c([N+](=O)[O-])c4)c(Oc4cnc5[nH]ccc5c4)c3)CC2)=C(c2ccc(Cl)cc2)C1 [Venetoclax] + C[C@@H](Nc1cc(F)cc(F)c1)c1cc(C(=O)N(C)C)cc2c(=O)cc(N3CCOCC3)oc12 [AZD8186] (first compound max 1 µM, 7x7, partner max 3 µM) |  | -0.0583 | -0.0069 | 0.0209 | -0.023 | -0.0326 | 0.0007 | -0.0408 | 0.0298 |  | -0.0453 | 0.0163
CC1(C)CCC(CN2CCN(c3ccc(C(=O)NS(=O)(=O)c4ccc(NCC5CCOCC5)c([N+](=O)[O-])c4)c(Oc4cnc5[nH]ccc5c4)c3)CC2)=C(c2ccc(Cl)cc2)C1 [Venetoclax] + Cc1cc2ncnn2cc1Nc1ncc2c(n1)n(C1CCOCC1)c(=O)n2C [AZD7648] (first compound max 1 µM, 7x7, partner max 10 µM) |  | -0.0699 | 0.0002 | -0.082 | -0.0124 | -0.0354 | -0.0296 | -0.0256 | -0.0714 |  | -0.024 | -0.0228
CC1(C)CCC(CN2CCN(c3ccc(C(=O)NS(=O)(=O)c4ccc(NCC5CCOCC5)c([N+](=O)[O-])c4)c(Oc4cnc5[nH]ccc5c4)c3)CC2)=C(c2ccc(Cl)cc2)C1 [Venetoclax] + Cn1cnc2c(F)c(Nc3ccc(Br)cc3Cl)c(C(=O)NOCCO)cc21 [Selumetinib] (first compound max 1 µM, 7x7, partner max 3 µM) |  | -0.0609 | -0.0116 | -0.131 | 0.0048 | -0.0369 | 0.0043 | -0.0681 | -0.0467 |  | -0.0576 | 0.0653
